Data on 24 molecules can be found in US9169254B2, “Spiroimidazolone derivative” (Chugai Seiyaku Kabushiki Kaisha, priority 2009, dated 2015).

SMILES strings stand for the structures.

This assay addresses T1, human PTH1 receptor (Homo sapiens, UniProt Q03431).
T1 sequence (Q03431 27-593): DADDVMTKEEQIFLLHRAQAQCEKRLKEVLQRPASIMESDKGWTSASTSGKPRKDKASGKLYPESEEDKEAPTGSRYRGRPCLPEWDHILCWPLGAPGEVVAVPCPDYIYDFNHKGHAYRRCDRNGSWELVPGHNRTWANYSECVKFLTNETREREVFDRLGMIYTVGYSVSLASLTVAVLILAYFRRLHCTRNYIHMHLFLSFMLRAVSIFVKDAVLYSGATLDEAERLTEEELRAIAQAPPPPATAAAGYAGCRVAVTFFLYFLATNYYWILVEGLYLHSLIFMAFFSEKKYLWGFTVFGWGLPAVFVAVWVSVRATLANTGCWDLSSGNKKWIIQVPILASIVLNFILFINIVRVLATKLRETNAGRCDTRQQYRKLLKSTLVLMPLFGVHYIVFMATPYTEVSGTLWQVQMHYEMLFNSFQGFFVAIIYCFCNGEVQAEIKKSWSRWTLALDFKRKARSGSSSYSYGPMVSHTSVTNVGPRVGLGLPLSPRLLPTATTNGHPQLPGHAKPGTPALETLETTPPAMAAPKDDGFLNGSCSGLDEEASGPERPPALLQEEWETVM
Nature of the assay: In vitro cAMP signal activity in HKRK-B7 cells (LLC-PK1 cells overexpressing the human PTH1 receptor). The class given is cell-based. Particulars: HKRK-B7 cells; compound at 1×10^−3 M; cAMP produced as percentage of that produced by hPTH(1-34) at 100 nM.
Turning to `COC(=O)NCCc1ccc(CCS(=O)(=O)N2CCC3(CC2)N=C(C2CCCCC2)NC3=O)cc1` [Compound 672, (2-{4-[2-(2-Cyclohexyl-4-oxo-1,3,8-triaza-spiro[4.5]dec-1-ene-8-sulfonyl)-ethyl]-phenyl}-ethyl)-carbamic acid methyl ester], the “cAMP production activity (%)” value is recorded as 47%.
As for `Cc1cc(CN(C)C(=O)OC(C)(C)C)ccc1CCS(=O)(=O)N1CCC2(CC1)N=C(C1CCCCC1)NC2=O` [Compound 673, {4-[2-(2-cyclohexyl-4-oxo-1,3,8-triaza-spiro[4.5]dec-1-ene-8-sulfonyl)-ethyl]-3-methyl-benzyl}-methyl-carbamic acid tert-butyl ester], the “cAMP production activity (%)” value came out at 27%.
Turning to `Cc1cc(N2CCN(CCO)C2=O)ccc1CCS(=O)(=O)N1CCC2(CC1)N=C(c1cccc(C(F)(F)F)c1)NC2=O` [Compound 674, 8-(2-{4-[3-(2-Hydroxy-ethyl)-2-oxo-imidazolidin-1-yl]-2-methyl-phenyl}-ethanesulfonyl)-2-(3-trifluoromethyl-phenyl)-1,3,8-triaza-spiro[4.5]dec-1-en-4-one], the “cAMP production activity (%)” value is listed as 68%.
Consider `Cc1cc(S(=O)(=O)NCC(N)=O)ccc1CCS(=O)(=O)N1CCC2(CC1)N=C(c1cccc(OC(F)(F)F)c1)NC2=O` [Compound 675, 2-(3-Methyl-4-{2-[4-oxo-2-(3-trifluoromethoxy-phenyl)-1,3,8-triaza-spiro[4.5]dec-1-ene-8-sulfonyl]-ethyl}-benzenesulfonylamino)-acetamide], for which the “cAMP production activity (%)” value amounted to 68%.
On to `Cc1cc(OCCC(O)CO)cc(C)c1CCS(=O)(=O)N1CCC2(CC1)N=C(c1cccc(OC(F)(F)F)c1)NC2=O` (stereo not drawn) [Compound 676, 8-{2-[4-(3,4-dihydroxy-butoxy)-2,6-dimethyl-phenyl]-ethanesulfonyl}-2-(3-trifluoromethoxy-phenyl)-1,3,8-triaza-spiro[4.5]dec-1-en-4-one], for which the “cAMP production activity (%)” value amounted to 69%.
Then `CCCCC1CCC(C2=NC3(CCN(S(=O)(=O)CCc4c(C)cc(N5C(=O)CNC5=O)cc4C)CC3)C(=O)N2)CC1` (stereo not drawn) [Compound 677, 3-(4-{2-[2-(4-Butyl-cyclohexyl)-4-oxo-1,3,8-triaza-spiro[4.5]dec-1-ene-8-sulfonyl]-ethyl}-3,5-dimethyl-phenyl)-imidazolidine-2,4-dione], with 69%.
For `CC(=O)N(c1ccc(CCS(=O)(=O)N2CCC3(CC2)N=C(c2cccc(OC(F)(F)F)c2)NC3=O)c(C)c1)C1CCCC1` [Compound 678, N-Cyclopentyl-N-(3-methyl-4-{2-[4-oxo-2-(3-trifluoromethoxy-phenyl)-1,3,8-triaza-spiro[4.5]dec-1-ene-8-sulfonyl]-ethyl}-phenyl)-acetamide], the “cAMP production activity (%)” value is on record as 86%.
Regarding `Cc1c(CCS(=O)(=O)N2CCC3(CC2)N=C(C2CCC(C)CC2)NC3=O)ccc(N(C)C(N)=O)c1C` (stereo not drawn) [Compound 679, 1-(2,3-Dimethyl-4-{2-[2-(4-methyl-cyclohexyl)-4-oxo-1,3,8-triaza-spiro[4.5]dec-1-ene-8-sulfonyl]-ethyl}-phenyl)-1-methyl-urea], the “cAMP production activity (%)” value stood at 65%.
Regarding `Cc1cc(N(C)C(N)=O)c(C)cc1CCS(=O)(=O)N1CCC2(CC1)N=C(C1CCC(C)CC1)NC2=O` (stereo not drawn) [Compound 680, 1-(2,5-dimethyl-4-{2-[2-(4-methyl-cyclohexyl)-4-oxo-1,3,8-triaza-spiro[4.5]dec-1-ene-8-sulfonyl]-ethyl}-phenyl)-1-methyl-urea], the “cAMP production activity (%)” value amounted to 101%.
Take `Cc1cc(CN(CCO)C(=O)OC(C)(C)C)ccc1CCS(=O)(=O)N1CCC2(CC1)N=C(C1CCCCC1)NC2=O` [Compound 681, {4-[2-(2-Cyclohexyl-4-oxo-1,3,8-triaza-spiro[4.5]dec-1-ene-8-sulfonyl)-ethyl]-3-methyl-benzyl}-(2-hydroxy-ethyl)-carbamic acid tert-butyl ester]: the “cAMP production activity (%)” value is 55%.
On to `COc1cc(N(C)C(N)=O)cc(C)c1CCS(=O)(=O)N1CCC2(CC1)N=C(C1CCC(C)CC1)NC2=O` (stereo not drawn) [Compound 682, 1-(3-Methoxy-5-methyl-4-{2-[2-(4-methyl-cyclohexyl)-4-oxo-1,3,8-triaza-spiro[4.5]dec-1-ene-8-sulfonyl]-ethyl}-phenyl)-1-methyl-urea], for which the “cAMP production activity (%)” value was found to be 81%.
Then `Cc1cc(N(C)C(N)=O)cc(Cl)c1CCS(=O)(=O)N1CCC2(CC1)N=C(C1CCC(C)CC1)NC2=O` (stereo not drawn) [Compound 683, 1-(3-Chloro-5-methyl-4-{2-[2-(4-methyl-cyclohexyl)-4-oxo-1,3,8-triaza-spiro[4.5]dec-1-ene-8-sulfonyl]-ethyl}-phenyl)-1-methyl-urea], with 74%; and `COc1c(N(C)C(N)=O)cc(C)c(CCS(=O)(=O)N2CCC3(CC2)N=C([C@H]2CC[C@H](C)CC2)NC3=O)c1C` [Compound 684, 1-(2-methoxy-3,5-dimethyl-4-{2-[2-(4-methyl-cyclohexyl)-4-oxo-1,3,8-triaza-spiro[4.5]dec-1-ene-8-sulfonyl]-ethyl}-phenyl)-1-methyl-urea], with 101%; and `Cc1cc2[nH]c(=O)[nH]c(=O)c2c(C)c1CCS(=O)(=O)N1CCC2(CC1)N=C(C1CCC(C)CC1)NC2=O` (stereo not drawn) [Compound 685, 5,7-Dimethyl-6-{2-[2-(4-methyl-cyclohexyl)-4-oxo-1,3,8-triaza-spiro[4.5]dec-1-ene-8-sulfonyl]-ethyl}-1H-quinazoline-2,4-dione], with 46%.
Then `NCCn1ccc2c(/C=C/S(=O)(=O)N3CCC4(CC3)N=C(C3CCCCC3)NC4=O)cccc21` [Compound 686, 8-{(E)-2-[1-(2-Amino-ethyl)-1H-indol-4-yl]-ethenesulfonyl}-2-cyclohexyl-1,3,8-triaza-spiro[4.5]dec-1-en-4-one], with 22%; and `NCc1ccc(/C=C/S(=O)(=O)N2CCC3(CC2)N=C(C2CCCCC2)NC3=O)cc1` [Compound 687, 8-[(E)-2-(4-aminomethyl-phenyl)-ethenesulfonyl]-2-cyclohexyl-1,3,8-triaza-spiro[4.5]dec-1-en-4-one], with 25%.
Take `Cc1cc(NC(=O)[C@@H](N)CO)ccc1/C=C/S(=O)(=O)N1CCC2(CC1)N=C(c1cccc(C(F)(F)F)c1)NC2=O` [Compound 688, (S)-2-Amino-3-hydroxy-N-(3-methyl-4-{(E)-2-[4-oxo-2-(3-trifluoromethyl-phenyl)-1,3,8-triaza-spiro[4.5]dec-1-ene-8-sulfonyl]-vinyl}-phenyl)-propionamide]: the “cAMP production activity (%)” value amounted to 55%.
For `Cc1cc(N(C2CCNCC2)S(C)(=O)=O)cc(C)c1/C=C/S(=O)(=O)N1CCC2(CC1)N=C(c1cccc(OC(F)(F)F)c1)NC2=O` [Compound 689, N-(3,5-Dimethyl-4-{(E)-2-[4-oxo-2-(3-trifluoromethoxy-phenyl)-1,3,8-triaza-spiro[4.5]dec-1-ene-8-sulfonyl]-vinyl}-phenyl)-N-piperidin-4-yl-methanesulfonamide], the “cAMP production activity (%)” value was 27%.
On to `CNc1cc(C)c(/C=C/S(=O)(=O)N2CCC3(CC2)N=C(CCCCCCCCC(F)(F)F)NC3=O)c(C)c1` [Compound 690, 8-[(E)-2-(2,6-Dimethyl-4-methylamino-phenyl)-ethenesulfonyl]-2-(9,9,9-trifluoro-nonyl)-1,3,8-triaza-spiro[4.5]dec-1-en-4-one], for which the “cAMP production activity (%)” value was 86%.
Next, `CNc1cc(C)c(/C=C/S(=O)(=O)N2CCC3(CC2)N=C(CCCCCCCC(F)(F)C(F)(F)F)NC3=O)c(C)c1` [Compound 691, 8-[(E)-2-(2,6-Dimethyl-4-methylamino-phenyl)-ethenesulfonyl]-2-(8,8,9,9,9-pentafluoro-nonyl)-1,3,8-triaza-spiro[4.5]dec-1-en-4-one]: 69%; `CCCCCCCCCC1=NC2(CCN(S(=O)(=O)/C=C/c3c(C)cc(N(C)C(N)=O)cc3C)CC2)C(=O)N1` [Compound 692, 1-{3,5-Dimethyl-4-[(E)-2-(2-nonyl-4-oxo-1,3,8-triaza-spiro[4.5]dec-1-ene-8-sulfonyl)-vinyl]-phenyl}-1-methyl-urea]: 101%.
Turning to `COc1c(N(C)C(N)=O)cc(C)c(/C=C/S(=O)(=O)N2CCC3(CC2)N=C([C@H]2CC[C@H](C)CC2)NC3=O)c1C` [Compound 693, 1-(2-Methoxy-3,5-dimethyl-4-{(E)-2-[2-(4-methyl-cyclohexyl)-4-oxo-1,3,8-triaza-spiro[4.5]dec-1-ene-8-sulfonyl]-vinyl}-phenyl)-1-methyl-urea], the “cAMP production activity (%)” value turned out to be 103%.
Then `Cc1cc(N(CCF)C(N)=O)cc(C)c1/C=C/S(=O)(=O)N1CCC2(CC1)N=C(C1CCC(CCC(F)(F)F)CC1)NC2=O` (stereo not drawn) [Compound 694, 1-[3,5-Dimethyl-4-((E)-2-{4-oxo-2-[4-(3,3,3-trifluoro-propyl)-cyclohexyl]-1,3,8-triaza-spiro[4.5]dec-1-ene-8-sulfonyl}-vinyl)-phenyl]-1-(2-fluoro-ethyl)-urea], with 77%; and `Cc1cc(N(C)C(N)=O)cc(Cl)c1/C=C/S(=O)(=O)N1CCC2(CC1)N=C(C1CCC(C)CC1)NC2=O` (stereo not drawn) [Compound 695, 1-(3-Chloro-5-methyl-4-{(E)-2-[2-(4-methyl-cyclohexyl)-4-oxo-1,3,8-triaza-spiro[4.5]dec-1-ene-8-sulfonyl]-vinyl}-phenyl)-1-methyl-urea], with 78%.
